Measurements taken from PMC12526058, “1,2,4-Thiadiazolidin-3,5-Diones as Inhibitors of Cysteine Proteases” (Molecules, 2025).
Values joined by “and” are separate entries in the source; they are usually repeats but may differ in a detail not shown here. Equal values may be shown once. “Also recorded” adds a separate entry of the source.

Legend:
SARS-CoV-2 PLpro = SARS-CoV-2 PLpro (Severe acute respiratory syndrome coronavirus 2, UniProt P0DTD1); test: biochemical
Papain [1] = biological target: T1, Papain (Carica papaya, UniProt P00784); test: Papain inhibition, IC50 (Z-Phe-Arg-MCA substrate, 10 min pre-incubation); assay type: biochemical; details: for IC50 / IC50 for inhibition of Papain: 30 °C, 10 min pre-incubation, 100 mM sodium phosphate, 1 mM EDTA, pH 6.0, Z-Phe-Arg-MCA, Papain 120 nM
T1 construct: purchased Sigma
T1 sequence (P00784 134-345): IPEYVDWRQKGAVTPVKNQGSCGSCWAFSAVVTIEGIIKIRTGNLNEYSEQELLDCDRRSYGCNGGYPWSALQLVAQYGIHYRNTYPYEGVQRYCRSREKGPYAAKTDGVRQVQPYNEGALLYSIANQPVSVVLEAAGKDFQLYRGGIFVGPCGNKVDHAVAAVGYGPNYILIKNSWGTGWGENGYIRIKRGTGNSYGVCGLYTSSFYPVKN
Experimental: Papain and Bromelain were purchased from Sigma. Papain was previously activated at 25 °C in a degassed 100 mM sodium phosphate, 1 mM EDTA, pH 6.0 buffer containing 5 mM DTT (dithiothreitol) for 10 min, as previously described. To remove the DTT excess, a 1 mL solution of activated Papain was loaded on a 3 mL syringe with 1 mL Sephadex G25 size exclusion resin (Amersham Pharmacia, Amersham, UK). The enzyme was eluted with the same assay buffer, and its activity was monitored using Z-Phe-Arg-MCA as the substrate.
The activities of Cathepsin L and Papain were assessed using Z-Phe-Arg-MCA.

[2] = Stability of THIA derivatives in organic solvents and buffers (LC-MS); assay type: physicochemical; details: for Stability of 10 mM stock solutions in DMSO stored at −20 °C: 10 mM in DMSO, freezer −20 °C, LC-MS
Experimental: We chose THIA-3 as a reference due to its simplicity in larger-scale synthesis to evaluate the stability of this class of compounds. […] In the Tris buffer, decomposition to 1,3-diphenylurea was very slow, with some decomposition only apparent after 12 h of incubation (Figure S1B). We also evaluated the stability of 10 mM stock solutions of the ten THIAs in DMSO stored in a freezer (−20 °C) by Liquid Chromatography Mass Spectrometry (LC-MS). […] DMSO is also considered a reagent, but we have not explored the decomposition of THIA compounds in DMSO further, as it falls outside the scope of this work.
Figure S1. (A) - Stability THIA-3 in DMSO with 1% H2O. (B)- Stability of THIA-3 in water,100 mM sodium phosphate, Tris buffer pH 7.4, with 1 to 40% ACN.
Figure S2. Stability of THIAs in dimethyl sulfoxide and stored at -20 °C

SARS-CoV-2 3CLpro = SARS-CoV-2 3CLpro (Severe acute respiratory syndrome coronavirus 2, UniProt P0DTD1); test: 3CLpro inhibition, IC50 (FRET substrate, 10 min pre-incubation); assay type: biochemical
Papain [3] = biological target: T1, Papain; test: Papain inactivation kinetics, two-step irreversible mechanism; assay type: biochemical; details: Papain 48nM, Z-FR-MCA 1.5µM, 100 mM sodium phosphate, 1 mM EDTA, pH 6.0; for KI (inactivation): read-out: Ki, Papain inactivation (Ki = k-3/k3)
Description: (§1) This is confirmed by kinetic analyses of the reaction of THIA-3 with Papain, used as a diagnostic method as previously reported. The kinetic constant values of the reaction of the ten THIA compounds with Papain, for the reaction paths shown below, are reported in Table S2.
Table S2. Values of the kinetic constants for Papain inactivation kinetics analyses by all THIA compounds obtained for a two-step irreversible mechanism (see below the reaction paths) as reported in the reference (31)
Conditions: Papain 48nM, substrate Z-FR-MCA 1.5µM. Buffer: 100 mM sodium phosphate, 1 mM EDTA, pH 6.0. The kinetic constants for the reaction are indicated in the scheme below.
Ki represents the relation: Ki = k-3/k3, which is the dissociation constant describing the binding affinity between the inhibitor and the enzyme. In contrast, the IC50 is the concentration of inhibitor required to reduce enzymatic activity to half of its uninhibited value. The IC50 is less precise than Ki and depends on measurement conditions and the mechanism of inhibition. […] It is noteworthy that kinetic constants for Papain inactivation by THIA compounds are consistent with a two-step irreversible mechanism.

PLpro [4] = biological target: PLpro (Severe acute respiratory syndrome coronavirus 2, UniProt P0DTD1); test: Type of inhibition (reversibility assay) on PLpro; assay type: biochemical, SARS-CoV-2
3CLpro = 3CLpro (Severe acute respiratory syndrome coronavirus 2, UniProt P0DTD1); test: Type of inhibition (time dependence, reversibility) on 3CLpro; assay type: biochemical, SARS-CoV-2; details: reverted by reducing agents
Experimental: (§2) Initially, we identified the type of inhibition in each protease using THIA-3 as a reference compound for all the tested THIA derivatives. […] Due to the susceptibility of the THIA derivatives to reducing agents, such as Cys or DTT (Figure S4), the proteases Papain, Cathepsin L, 3CLpro, and PLpro were separately pre-activated by 5 mM DTT during 30 min, which was removed by gel filtration, forming stock solutions of the activated proteases, and then kept at −20 °C under an N2 atmosphere for future use.
as §1
(§3) Figure S3. […] The assay has been performed following the procedure described in Reference ACS Omega 6 (2021) 16584−16591. https://doi.org/10.1021/acsomega.1c01797.

Papain [5] = biological target: T1, Papain; test: Type of inhibition (time dependence, reversibility) on Papain; assay type: biochemical; details: reverted by reducing agents
Experimental: as §2, §1, §3
Figure S4. Inhibition of Papain by THIA-3 and its reversibility by cysteine (Cys) as a reducing agent. Z-FR-MCA as substrate, Papain activity was assessed before and after pre-incubation with 5µM THIA-3 for 5 min, and then assayed after Cys addition (10 µM).

Cathepsin L = biological target: T2, Cathepsin L (Homo sapiens, UniProt P07711); test: Type of inhibition on Cathepsin L; assay type: biochemical
T2 construct: made in house; host or cells: Pichia pastoris
T2 sequence (P07711 114-333): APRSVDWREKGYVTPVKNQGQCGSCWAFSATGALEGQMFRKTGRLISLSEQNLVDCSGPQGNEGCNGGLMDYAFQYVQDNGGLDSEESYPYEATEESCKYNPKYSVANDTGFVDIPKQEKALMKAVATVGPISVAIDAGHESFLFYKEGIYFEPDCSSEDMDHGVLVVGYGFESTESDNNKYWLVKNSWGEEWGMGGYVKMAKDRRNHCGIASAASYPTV
Experimental: as §2

Papain [6] = biological target: T1, Papain; set-up: method as in PMID 21329361; details: cited from earlier work
Bromelain = Bromelain (Ananas comosus, UniProt P14518); set-up: method as in PMID 33177555; details: cited from earlier work
Chain of Bromelain (P14518 whole entry): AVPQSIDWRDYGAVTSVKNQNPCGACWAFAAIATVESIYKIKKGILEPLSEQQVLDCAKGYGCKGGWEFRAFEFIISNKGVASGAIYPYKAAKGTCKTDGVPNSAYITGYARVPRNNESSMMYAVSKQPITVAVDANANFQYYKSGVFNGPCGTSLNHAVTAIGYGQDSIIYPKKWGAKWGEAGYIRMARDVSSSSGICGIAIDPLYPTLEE

PLpro [7] = details: noncovalent, binding to S4–S3 subsites; read-out: IC50 for inhibition of PLpro; cited from earlier work
[8] = IC50 for inhibition of 3CLpro (bound), unit inferred
[9] = IC50 for inhibition of 3CLpro, 30 °C, 10 min pre-incubation, 50 mM Tris, 1 mM EDTA, pH 7.5, Abz-[…](Dnp)-NH2, 3CLpro 27 nM

| Compound | IC50 (SARS-CoV-2 PLpro) | IC50 (Papain [1]) | IC50 for inhibition of Papain (Papain [1]) | Stability of 10 mM stock solutions in DMSO stored at −20 °C [2] | IC50 (SARS-CoV-2 3CLpro; [9]) | k3, Papain inactivation (Papain [3]) | k4, Papain inactivation (Papain [3]) | KI (inactivation) (Papain [3]) | further results |
| --- | --- | --- | --- | --- | --- | --- | --- | --- | --- |
| COc1ccc(-n2sc(=O)n(-c3ccc(Cl)cc3)c2=O)cc1 [THIA-7] | 14400 ± 700 nM | 130 ± 10 nM | in the nanomolar range | the most resistant | 10 ± 10 nM | 17.3 µM/s | 0.009 s⁻¹ | 160 nM | IC50 (SARS-CoV-2 3CLpro; [8]): < 50 nM |
| Cc1ccc(-n2sc(=O)n(-c3ccccc3)c2=O)cc1 [THIA-9] | 10400 ± 400 nM | 110 ± 10 nM | – | – | 160 ± 80 nM | 14.5 µM/s | 0.024 s⁻¹ | 340 nM | – |
| O=c1sn(-c2ccccc2)c(=O)n1-c1ccccc1 [THIA-3] | 8500 ± 200 nM | 140 ± 20 nM | – | – | 110 ± 10 nM | 19.7 µM/s | 0.008 s⁻¹ | 170 nM | Stability in DMSO with 1% water [2]: decomposed to 1,3-diphenylurea; Stability in acetonitrile (ACN) [2]: remained stable; Type of inhibition of PLpro (PLpro [4]): reversible inhibition; Type of inhibition of 3CLpro (3CLpro): covalent irreversible inhibition; also recorded: two-step covalent enzyme inactivation mechanism; Type of inhibition of Papain (Papain [5]): covalent irreversible inhibition; also recorded: two-step covalent enzyme inactivation mechanism; Type of inhibition of Cathepsin L (Cathepsin L): irreversible inhibition |
| COc1ccc(-n2sc(=O)n(-c3ccccc3)c2=O)cc1 [THIA-4] | 7600 ± 900 nM | 70 nM and 71 nM | – | – | 130 ± 10 nM | 4.9 µM/s | 0.015 s⁻¹ | 80 nM | – |
| Cc1ccc(-n2sc(=O)n(Cc3ccc(F)cc3)c2=O)cc1 [CCG-50014, 4-(4-fluorobenzyl)-2-p-tolyl-1,2,4-thiadiazolidine-3,5-dione] | – | – | – | – | – | – | – | – | Inhibition of Papain (Papain [6]): complete absence of papain inhibition; also recorded: failed to inhibit Papain |
| COc1ccc(-n2sc(=O)n(-c3ccc(OC)cc3)c2=O)cc1 [THIA-6] | 12500 ± 900 nM | 10 ± 1 nM | – | – | 30 ± 10 nM | 14.5 µM/s | 0.019 s⁻¹ | 270 nM | Fold higher Papain inhibitory potency than THIA-4 (Papain [1]; ratio of Papain IC50 values): sevenfold; Fold increase in Papain inhibitory potency compared to THIA-8 (Papain [1]; ratio of Papain IC50 values): 240 fold; IC50 (SARS-CoV-2 3CLpro; unit inferred): < 50 nM |
| CC(C)C[C@H](NC(=O)[C@H]1O[C@@H]1C(=O)O)C(=O)NCCCCN=C(N)N (relative stereo) [E-64, L-trans-Epoxysuccinyl-leucylamido (4-guanidino)butane] | – | – | – | – | – | – | – | – | Inhibition of Bromelain (Bromelain): poor inhibition |
| COc1ccc(-n2sc(=O)n(-c3ccc(C)cc3)c2=O)cc1 [THIA-5] | 3900 ± 700 nM | 102 ± 3 nM | – | – | 90 ± 10 nM | 12.3 µM/s | 0.021 s⁻¹ | 270 nM | – |
| COc1ccc(-n2sc(=O)n(Cc3ccccc3)c2=O)cc1 [THIA-2] | 8300 ± 800 nM | 1280 ± 70 nM | in the μM range | the most resistant | 120 ± 10 nM | 24.6 µM/s | 0.012 s⁻¹ | 320 nM | – |
| O=c1sn(-c2ccc(F)cc2)c(=O)n1-c1ccccc1 [THIA-10] | 10000 ± 1000 nM | 10 nM and 11 nM | – | the most resistant; also recorded: THIA-10 No degradation detected | 20 ± 10 nM | 13.7 µM/s | 0.022 s⁻¹ | 310 nM | IC50 (SARS-CoV-2 3CLpro; [8]): < 50 nM; Type of inhibition of Papain (Papain [5]): two-step covalent enzyme inactivation mechanism |
| COc1ccc(-n2sc(=O)n(C3CCCCC3)c2=O)cc1 [THIA-8] | 4200 ± 100 nM | 2400 ± 100 nM | in the μM range | the most resistant | 190 ± 10 nM | 109.9 µM/s | 0.016 s⁻¹ | 680 nM | – |
| O=c1sn(-c2ccccc2)c(=O)n1Cc1ccccc1 [THIA-1] | 25000 ± 3000 nM | 2160 ± 90 nM | in the μM range | the most resistant | 130 ± 10 nM | 19.9 µM/s | 0.013 s⁻¹ | 260 nM | – |
